Laboratory results: publication PMC3094704, “S-Petasin, the Main Sesquiterpene of Petasites formosanus, Inhibits Phosphodiesterase Activity and Suppresses Ovalbumin-Induced Airway Hyperresponsiveness” (Evidence-based Complementary and Alternative Medicine : eCAM, 2011)

Tested on: female BALB/c mice
Experiment: Xylazine/ketamine-induced anesthesia
Format: in vivo, mouse
Settings: 10–100 μmol/kg s.c., 1 h before anesthesia
Experimental: According to the method described by Robichaud et al. and modified by us, S-petasin (10–100 μmol/kg, s.c.) or rolipram (0.01–1 μmol/kg, s.c.), a reference drug, was injected into 8–12 week-old female BALB/c mice 1 h or 15 min, respectively, prior to an i.p. injection of xylazine (10 mg/kg)/ketamine (70 mg/kg). The vehicle (control) for S-petasin or for rolipram was a mixture of alcohol : DMSO : 30% HPβCD : saline (0.5 : 0.5 : 1 : 8 , v/v), or alcohol : DMSO : PEG 400 : saline (0.5 : 0.5 : 1 : 8, v/v), respectively. After loss of the righting reflex (i.e., when a mouse remained on its back and no longer spontaneously righted itself to a prone position), the duration of anesthesia was measured until its return as an endpoint.

For C=C(C)[C@@H]1C[C@@]2(C)C(=CC1=O)CC[C@@H](OC(=O)/C=C\SC)[C@@H]2C [S-Petasin], the “Duration of xylazine/ketamine-induced anesthesia” value was “did not affect”.
